Assays:
[1] = tested on: Tyrosine-protein kinase ABL1 (Homo sapiens), P00519 [F317I]; test: Binding affinity to human non-phosphorylated ABL1 F317I mutant (S229 to K512 residues) expressed in mammalian expression system assessed as residual binding level at 1 uM by Kinomescan method relative to control
[2] = tested on: Tyrosine-protein kinase ABL1 (Homo sapiens), P00519 [F317L]; test: Binding affinity to human non-phosphorylated ABL1 F317L mutant (S229 to K512 residues) expressed in mammalian expression system assessed as residual binding level at 1 uM by Kinomescan method relative to control
[3] = target: Mitogen-activated protein kinase kinase kinase 5 (Homo sapiens) (UniProt Q99683); test: Binding affinity to wild-type human partial length ASK1 (E648 to S964 residues) expressed in bacterial expression system assessed as residual binding level at 1 uM by Kinomescan method relative to control
[4] = target: Calcium/calmodulin-dependent protein kinase type 1G (Homo sapiens) (UniProt Q96NX5); test: Binding affinity to wild-type human partial length CAMK1G (M1 to A342 residues) expressed in bacterial expression system assessed as residual binding level at 1 uM by Kinomescan method relative to control
[5] = target: Cyclin-dependent kinase 19 (Homo sapiens) (UniProt Q9BWU1); test: Binding affinity to wild-type human partial length CDK11 (M1 to N360 residues) expressed in bacterial expression system assessed as residual binding level at 1 uM by Kinomescan method relative to control
[6] = target: Cyclin-dependent kinase 4/cyclin D1 (Homo sapiens) (UniProt P11802+P24385); test: Binding affinity to wild-type human full length CDK4/cyclinD1 (M1 to E303 residues) expressed in mammalian expression system assessed as residual binding level at 1 uM by Kinomescan method relative to control
[7] = target: Casein kinase I isoform gamma-2 (Homo sapiens) (UniProt P78368); test: Binding affinity to wild-type human full length CSNK1G2 (M1 to K415 residues) expressed in bacterial expression system assessed as residual binding level at 1 uM by Kinomescan method relative to control
[8] = target: Death-associated protein kinase 2 (Homo sapiens) (UniProt Q9UIK4); test: Binding affinity to wild-type human full length DAPK2 (M1 to S370 residues) expressed in bacterial expression system assessed as residual binding level at 1 uM by Kinomescan method relative to control
[9] = tested on: Epidermal growth factor receptor (Homo sapiens), P00533 [L858R,T790M]; test: Binding affinity to human partial length EGFR L858R/T790M double mutant (R669 to V1011 residues) expressed in mammalian expression system assessed as residual binding level at 1 uM by Kinomescan method relative to control
[10] = target: Ephrin type-A receptor 8 (Homo sapiens) (UniProt P29322); test: Binding affinity to wild-type human partial length EPHA8 (Q608 to C920 residues) expressed in bacterial expression system assessed as residual binding level at 1 uM by Kinomescan method relative to control
[11] = target: Receptor tyrosine-protein kinase erbB-3 (Homo sapiens) (UniProt P21860); test: Binding affinity to wild-type human partial length ERBB3 (G684 to A987 residues) expressed in mammalian expression system assessed as residual binding level at 1 uM by Kinomescan method relative to control
[12] = target: Receptor tyrosine-protein kinase erbB-4 (Homo sapiens) (UniProt Q15303); test: Binding affinity to wild-type human partial length ERBB4 (L690 to K994 residues) expressed in bacterial expression system assessed as residual binding level at 1 uM by Kinomescan method relative to control
[13] = target: Mitogen-activated protein kinase 4 (Homo sapiens) (UniProt P31152); test: Binding affinity to wild-type human partial length ERK4 (M1 to L365 residues) expressed in bacterial expression system assessed as residual binding level at 1 uM by Kinomescan method relative to control
[14] = target: Tyrosine-protein kinase Fes/Fps (Homo sapiens) (UniProt P07332); test: Binding affinity to wild-type human partial length FES (I527 to R822 residues) expressed in bacterial expression system assessed as residual binding level at 1 uM by Kinomescan method relative to control
[15] = target: Insulin-like growth factor 1 receptor (Homo sapiens) (UniProt P08069); test: Binding affinity to wild-type human partial length IGF1R (L972 to D1294 residues) expressed in bacterial expression system assessed as residual binding level at 1 uM by Kinomescan method relative to control
[16] = target: Interleukin-1 receptor-associated kinase 4 (Homo sapiens) (UniProt Q9NWZ3); test: Binding affinity to wild-type human partial length IRAK4 (M1 to S460 residues) expressed in mammalian expression system assessed as residual binding level at 1 uM by Kinomescan method relative to control
[17] = target: Tyrosine-protein kinase JAK1 (Homo sapiens) (UniProt P23458); test: Binding affinity to wild-type human partial length JAK1 JH2 pseudokinase domain (R537 to D855 residues) expressed in mammalian expression system assessed as residual binding level at 1 uM by Kinomescan method relative to control
[18] = target: Mitogen-activated protein kinase 10 (Homo sapiens) (UniProt P53779); test: Binding affinity to wild-type human partial length JNK3 (V28 to Q422 residues) expressed in mammalian expression system assessed as residual binding level at 1 uM by Kinomescan method relative to control
[19] = target: Serine/threonine-protein kinase MARK1 (Homo sapiens) (UniProt Q9P0L2); test: Binding affinity to wild-type human partial length MARK1 (Q30 to T341 residues) expressed in bacterial expression system assessed as residual binding level at 1 uM by Kinomescan method relative to control
[20] = target: Serine/threonine-protein kinase Nek3 (Homo sapiens) (UniProt P51956); test: Binding affinity to wild-type human full length NEK3 (M1 to R506 residues) expressed in mammalian expression system assessed as residual binding level at 1 uM by Kinomescan method relative to control
[21] = target: Membrane-associated tyrosine- and threonine-specific cdc2-inhibitory kinase (Homo sapiens) (UniProt Q99640); test: Binding affinity to wild-type human partial length PKMYT1 (A88 to G366 residues) expressed in bacterial expression system assessed as residual binding level at 1 uM by Kinomescan method relative to control
[22] = target: Serine/threonine-protein kinase SBK1 (Homo sapiens) (UniProt Q52WX2); test: Binding affinity to wild-type human partial length SBK1 (P23 to P348 residues) expressed in mammalian expression system assessed as residual binding level at 1 uM by Kinomescan method relative to control
[23] = target: Non-receptor tyrosine-protein kinase TYK2 (Homo sapiens) (UniProt P29597); test: Binding affinity to wild-type human partial length TYK2 JH1 catalytic domain (V877 to C1187 residues) expressed in mammalian expression system assessed as residual binding level at 1 uM by Kinomescan method relative to control
[24] = target: Serine/threonine-protein kinase 25 (Homo sapiens) (UniProt O00506); test: Binding affinity to wild-type human partial length YSK1 (V14 to H295 residues) expressed in bacterial expression system assessed as residual binding level at 1 uM by Kinomescan method relative to control

Chain of Tyrosine-protein kinase JAK1 (Homo sapiens) (P23458 whole entry, the tested form may be a part): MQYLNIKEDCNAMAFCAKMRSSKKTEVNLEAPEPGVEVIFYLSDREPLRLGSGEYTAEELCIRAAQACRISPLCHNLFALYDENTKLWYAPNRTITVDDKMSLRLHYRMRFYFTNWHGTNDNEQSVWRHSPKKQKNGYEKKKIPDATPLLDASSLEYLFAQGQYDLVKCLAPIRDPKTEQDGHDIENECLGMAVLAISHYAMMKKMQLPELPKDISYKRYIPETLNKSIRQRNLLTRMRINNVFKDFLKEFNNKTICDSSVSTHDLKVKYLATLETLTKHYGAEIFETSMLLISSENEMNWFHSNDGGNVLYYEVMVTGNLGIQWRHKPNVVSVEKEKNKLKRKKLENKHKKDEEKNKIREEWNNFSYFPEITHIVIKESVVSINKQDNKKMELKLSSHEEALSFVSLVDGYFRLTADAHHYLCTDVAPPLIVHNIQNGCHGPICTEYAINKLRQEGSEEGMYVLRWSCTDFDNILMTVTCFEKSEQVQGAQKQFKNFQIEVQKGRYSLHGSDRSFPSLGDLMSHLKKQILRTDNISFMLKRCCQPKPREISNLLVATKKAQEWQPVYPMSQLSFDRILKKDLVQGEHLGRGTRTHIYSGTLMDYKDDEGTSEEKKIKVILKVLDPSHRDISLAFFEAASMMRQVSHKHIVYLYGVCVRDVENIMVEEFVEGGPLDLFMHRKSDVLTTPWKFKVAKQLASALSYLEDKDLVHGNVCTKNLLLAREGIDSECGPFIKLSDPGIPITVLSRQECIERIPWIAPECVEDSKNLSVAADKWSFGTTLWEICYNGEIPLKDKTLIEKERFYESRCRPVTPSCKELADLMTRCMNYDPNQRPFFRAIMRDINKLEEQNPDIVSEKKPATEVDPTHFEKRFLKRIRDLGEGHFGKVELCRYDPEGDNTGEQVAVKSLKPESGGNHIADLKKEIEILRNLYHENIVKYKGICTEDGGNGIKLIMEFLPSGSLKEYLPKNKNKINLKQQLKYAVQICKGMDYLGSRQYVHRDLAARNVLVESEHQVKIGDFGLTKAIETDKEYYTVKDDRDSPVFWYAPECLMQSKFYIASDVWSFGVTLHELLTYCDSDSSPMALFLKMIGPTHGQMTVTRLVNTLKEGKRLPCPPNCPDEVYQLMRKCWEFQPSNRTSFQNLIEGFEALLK
Chain of Death-associated protein kinase 2 (Homo sapiens) (Q9UIK4 whole entry, looked up, the tested form may be a part): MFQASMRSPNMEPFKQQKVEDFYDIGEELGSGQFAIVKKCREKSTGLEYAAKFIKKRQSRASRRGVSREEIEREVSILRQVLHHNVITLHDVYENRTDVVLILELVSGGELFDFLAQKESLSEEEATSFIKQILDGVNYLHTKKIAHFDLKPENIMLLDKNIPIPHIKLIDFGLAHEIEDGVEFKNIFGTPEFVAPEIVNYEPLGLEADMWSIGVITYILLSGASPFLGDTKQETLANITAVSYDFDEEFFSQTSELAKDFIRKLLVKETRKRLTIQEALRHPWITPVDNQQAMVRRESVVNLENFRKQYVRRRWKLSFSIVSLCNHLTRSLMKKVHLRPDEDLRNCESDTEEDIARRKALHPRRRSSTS
Chain of Receptor tyrosine-protein kinase erbB-3 (Homo sapiens) (P21860 whole entry, the tested form may be a part): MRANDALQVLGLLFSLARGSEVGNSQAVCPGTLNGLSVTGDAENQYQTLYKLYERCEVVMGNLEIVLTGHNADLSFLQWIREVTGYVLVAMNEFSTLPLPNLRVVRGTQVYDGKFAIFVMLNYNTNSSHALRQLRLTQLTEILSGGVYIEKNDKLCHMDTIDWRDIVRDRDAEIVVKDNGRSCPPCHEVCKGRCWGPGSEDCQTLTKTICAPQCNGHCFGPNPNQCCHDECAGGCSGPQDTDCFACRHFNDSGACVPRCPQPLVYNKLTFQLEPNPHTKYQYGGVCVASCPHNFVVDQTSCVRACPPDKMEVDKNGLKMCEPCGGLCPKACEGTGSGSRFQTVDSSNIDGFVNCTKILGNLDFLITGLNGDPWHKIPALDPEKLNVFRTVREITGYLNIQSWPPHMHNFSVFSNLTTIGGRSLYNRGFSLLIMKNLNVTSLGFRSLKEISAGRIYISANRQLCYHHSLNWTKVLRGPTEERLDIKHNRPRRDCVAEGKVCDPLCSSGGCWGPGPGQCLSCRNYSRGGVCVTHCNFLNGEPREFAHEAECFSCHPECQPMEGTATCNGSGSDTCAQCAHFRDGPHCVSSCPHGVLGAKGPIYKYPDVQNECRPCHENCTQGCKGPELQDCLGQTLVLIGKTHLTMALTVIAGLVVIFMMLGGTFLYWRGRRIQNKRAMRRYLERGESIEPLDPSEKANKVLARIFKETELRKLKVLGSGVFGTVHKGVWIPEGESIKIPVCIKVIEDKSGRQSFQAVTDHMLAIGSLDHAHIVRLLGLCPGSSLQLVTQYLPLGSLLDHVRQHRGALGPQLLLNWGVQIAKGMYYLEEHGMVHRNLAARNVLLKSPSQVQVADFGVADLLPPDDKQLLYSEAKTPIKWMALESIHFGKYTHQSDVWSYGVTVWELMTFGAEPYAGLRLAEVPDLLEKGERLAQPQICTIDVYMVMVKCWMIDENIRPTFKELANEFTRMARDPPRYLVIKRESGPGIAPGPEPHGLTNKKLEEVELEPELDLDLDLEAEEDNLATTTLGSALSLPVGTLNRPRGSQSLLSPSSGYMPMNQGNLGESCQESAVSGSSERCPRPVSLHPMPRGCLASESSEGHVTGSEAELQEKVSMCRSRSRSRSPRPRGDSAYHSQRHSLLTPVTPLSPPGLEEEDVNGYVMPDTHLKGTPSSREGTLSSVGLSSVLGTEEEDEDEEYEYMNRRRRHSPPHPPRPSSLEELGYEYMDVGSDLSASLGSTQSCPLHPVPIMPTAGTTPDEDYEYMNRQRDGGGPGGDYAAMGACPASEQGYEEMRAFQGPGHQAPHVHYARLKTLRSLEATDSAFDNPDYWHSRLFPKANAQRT
Chain of Serine/threonine-protein kinase SBK1 (Homo sapiens) (Q52WX2 whole entry, the tested form may be a part): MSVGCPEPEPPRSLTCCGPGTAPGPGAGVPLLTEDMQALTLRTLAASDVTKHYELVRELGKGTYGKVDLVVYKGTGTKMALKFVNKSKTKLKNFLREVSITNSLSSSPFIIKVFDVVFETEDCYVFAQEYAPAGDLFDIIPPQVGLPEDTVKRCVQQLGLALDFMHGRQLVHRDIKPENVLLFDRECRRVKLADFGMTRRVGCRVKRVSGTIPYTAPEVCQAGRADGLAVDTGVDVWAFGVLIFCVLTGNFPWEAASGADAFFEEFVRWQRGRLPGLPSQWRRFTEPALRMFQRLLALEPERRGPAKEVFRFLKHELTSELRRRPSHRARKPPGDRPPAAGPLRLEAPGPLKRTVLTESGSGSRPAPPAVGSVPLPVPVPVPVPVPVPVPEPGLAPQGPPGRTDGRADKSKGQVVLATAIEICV
Chain of Tyrosine-protein kinase ABL1 (Homo sapiens), P00519 [F317I] (P00519 whole entry F317I, the tested form may be a part): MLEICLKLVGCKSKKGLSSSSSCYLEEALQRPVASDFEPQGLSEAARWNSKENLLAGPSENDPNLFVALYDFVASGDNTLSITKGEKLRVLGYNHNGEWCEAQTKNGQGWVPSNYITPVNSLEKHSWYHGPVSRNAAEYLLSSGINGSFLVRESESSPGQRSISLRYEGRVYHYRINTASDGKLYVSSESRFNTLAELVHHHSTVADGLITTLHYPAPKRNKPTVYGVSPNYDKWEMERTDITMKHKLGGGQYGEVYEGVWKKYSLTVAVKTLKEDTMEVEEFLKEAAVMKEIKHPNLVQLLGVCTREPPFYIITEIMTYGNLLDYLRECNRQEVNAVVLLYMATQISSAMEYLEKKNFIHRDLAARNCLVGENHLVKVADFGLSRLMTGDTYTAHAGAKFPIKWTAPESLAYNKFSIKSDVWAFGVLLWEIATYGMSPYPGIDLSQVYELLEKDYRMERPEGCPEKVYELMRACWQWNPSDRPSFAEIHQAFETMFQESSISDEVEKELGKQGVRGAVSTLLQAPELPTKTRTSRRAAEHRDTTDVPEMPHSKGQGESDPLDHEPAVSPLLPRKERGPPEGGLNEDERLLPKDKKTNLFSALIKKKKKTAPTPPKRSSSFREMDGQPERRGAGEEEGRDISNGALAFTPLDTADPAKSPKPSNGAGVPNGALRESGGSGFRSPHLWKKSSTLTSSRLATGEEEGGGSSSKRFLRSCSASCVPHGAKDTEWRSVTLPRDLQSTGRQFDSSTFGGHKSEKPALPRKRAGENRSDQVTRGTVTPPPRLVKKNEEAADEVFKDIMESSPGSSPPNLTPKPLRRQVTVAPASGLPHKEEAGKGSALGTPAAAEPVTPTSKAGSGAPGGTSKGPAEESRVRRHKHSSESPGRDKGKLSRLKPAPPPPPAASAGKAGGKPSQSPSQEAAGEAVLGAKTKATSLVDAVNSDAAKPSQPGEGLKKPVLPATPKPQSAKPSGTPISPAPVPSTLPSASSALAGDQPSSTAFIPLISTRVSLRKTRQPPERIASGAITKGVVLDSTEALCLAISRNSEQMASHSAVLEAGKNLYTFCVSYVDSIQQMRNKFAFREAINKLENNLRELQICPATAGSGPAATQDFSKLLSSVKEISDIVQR
Chain of Cyclin-dependent kinase 19 (Homo sapiens) (Q9BWU1 whole entry, the tested form may be a part): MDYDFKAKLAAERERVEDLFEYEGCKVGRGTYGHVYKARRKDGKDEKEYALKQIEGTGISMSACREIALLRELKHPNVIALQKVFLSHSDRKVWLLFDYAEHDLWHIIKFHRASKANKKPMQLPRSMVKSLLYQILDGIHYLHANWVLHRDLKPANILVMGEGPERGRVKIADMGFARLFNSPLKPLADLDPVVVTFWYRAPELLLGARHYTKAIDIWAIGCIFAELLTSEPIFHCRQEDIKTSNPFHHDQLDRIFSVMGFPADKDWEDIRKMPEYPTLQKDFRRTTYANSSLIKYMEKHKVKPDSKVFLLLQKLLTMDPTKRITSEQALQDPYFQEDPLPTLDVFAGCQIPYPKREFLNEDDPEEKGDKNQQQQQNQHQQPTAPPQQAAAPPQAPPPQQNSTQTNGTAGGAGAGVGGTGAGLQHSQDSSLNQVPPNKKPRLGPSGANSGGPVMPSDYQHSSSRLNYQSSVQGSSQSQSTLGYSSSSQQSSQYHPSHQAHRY
Chain of Tyrosine-protein kinase ABL1 (Homo sapiens), P00519 [F317L] (P00519 whole entry F317L, the tested form may be a part): as the sequence (P00519 whole entry F317I, the tested form may be a part) above, with I317L counted along it

CC(C)Nc1sc(C(=O)c2ccc(Cl)s2)c(N)c1C#N
Activity [1]: 100% | Activity [2]: 100% | Activity [3]: 100% | Activity [4]: 68% | Activity [5]: 83% | Activity [6]: 100% | Activity [7]: 74% | Activity [8]: 66% | Activity [9]: 83% | Activity [10]: 86% | Activity [11]: 75% | Activity [12]: 100% | Activity [13]: 89% | Activity [14]: 98% | Activity [15]: 90% | Activity [16]: 100% | Activity [17]: 89% | Activity [18]: 100% | Activity [19]: 67% | Activity [20]: 100% | Activity [21]: 78% | Activity [22]: 100% | Activity [23]: 100% | Activity [24]: 81%

Source: ChEMBL document CHEMBL4330132, “5-Keto-3-cyano-2,4-diaminothiophenes as selective maternal embryonic leucine zipper kinase inhibitors” (Bioorg Med Chem Lett, 2019)
